Measurements: US5230998A, “Method for the prescreening of drugs targeted to the V3 hypervariable loop of the HIV-1 envelope glycoprotein gp 120” (priority 1991, dated 1993)
Entries after “also recorded” stand apart in the source; their conditions may differ.

Tests used:
[1] = target: gp120 of the same virus subtype expressed in E. coli (HIV-1 M:B_ARV2/SF2, UniProt P03378); test: Interaction of ATA with gp120 (non-glycosylated); assay type: binding, HIV-1 SF2; details: data not shown
peptide (492-518) = peptide (492-518) (Human immunodeficiency virus type 1 BH10, UniProt P03375); test: Inhibition by ATA of reaction between peptide and homologous antibodies (FIG. 1B); assay type: binding, HIV-1 BH 10; details: ATA 50 μg/ml
Sequence of peptide (492-518) (P03375 492-518): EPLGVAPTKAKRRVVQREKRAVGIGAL
Description: (§1) FIG. 1 comprises four bar graphs concerning the interaction of aurintricarboxylic acid (ATA) with the V3 hypervariable loop of gp120 and with distinct peptides derived from the sequence of gp160. FIG. 1A: Inhibitory effect of ATA (50 μg/ml) on the reaction of antibodies to peptides from the sequence of HIV-1 gp160 with gp120 or gp160. gp120-coated wells were used for antisera to peptides from gp120 and gp160-coated wells were used with antisera to peptides from gp41. FIG. 1B: Inhibitory effect of ATA (50 μg/ml) on the reaction between antibodies to peptides from gp120/gp41 and homologous peptides. FIG. 1C: binding of ATA to wells coated with distinct peptides from the sequence of gp160, as determined by subsequent binding of anti-ATA antibodies. FIG. ID: Net electric charge of peptides from the sequence of gp160, determined by subtracting the number of aspartic (D) and glutamic (E) residues from the sum of lysine (K) and arginine (R) residues present in distinct segments of the gp160 sequence. The horizontal dotted line indicates the boundary between non-significant and significant inhibition, established from three times repeated experiments.
(§2) Wells of 96 well polystyrene plates (Immulon 2, Dynatech Laboratories, Inc., Chantilly, Va.) were coated with synthetic peptides (200 μl; 20μg/ml in 0.1 M Tris-HCl, pH 8.8) overnight at 20° C. The peptides were from the sequence of HIV-1, clone BH 10 envelope glycoproteins gp120 and gp41 (Neurath, A. R., Strick, N., and Lee, E. Y. S. (1990), "B-cell Epitope Mapping of Human Immunodeficiency virus (HIV-1) Envelope Glycoprotein with Long (19 to 36-residue) Synthetic Peptides", J. Gen. Virol., 71., 85-95) and from V3 hypervariable loops of 21 distinct HIV-1 isolates (clones) Neurath, A. R., and Strick, N., (1990), "Confronting the Hypervariability of an Immunodominant Epitope Eliciting Virus Neutralizing Antibodies from the Envelope Glycoprotein of the Human Immunodeficiency Virus Type 1 (HIV-1)", Molec. Immunol., 27, 539-549. The latter peptides corresponded to full-length V3 loops generated by disulfide bonds between N- and C- terminal cysteine residues. After washing with 0.14 M NaCl, 0.01 M Tris, 0.02% NaN3 (TS), the wells were postcoated with a mixture of bovine serum albumin (BSA) and gelatine (10 and 2.5 mg/ml, respectively) in TS. […]
(§3) To define sites on gp120/gp41 reacting with ATA, the inhibitory effect of this compound was studied by RIA tests using gp120- and gp160-coated wells, respectively, and antisera (final dilutions 1:150) against synthetic peptides from the entire sequence of gp120/gp41 of HIV-1 BH 10. […] Attached rabbit IgG was detected using ^125 I-labeled anti-rabbit IgG, as described before (Neurath et al., 1990, J. Gen. Virol., 71, 85-95). […]

peptide (331-361) = peptide (331-361) (Human immunodeficiency virus type 1 BH10, UniProt P03375); test: as above; assay type: binding, HIV-1 BH 10; details: ATA 50 μg/ml
Sequence of peptide (331-361) (P03375 324-354): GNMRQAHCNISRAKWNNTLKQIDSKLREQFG
Description: as §1, §2, §3

[2] = target: peptide (845-862) from gp41 (Human immunodeficiency virus type 1 BH10, UniProt P03375); test: as above; assay type: binding, HIV-1 BH 10; details: ATA 50 μg/ml
Sequence of peptide (845-862) from gp41 (P03375 512-856): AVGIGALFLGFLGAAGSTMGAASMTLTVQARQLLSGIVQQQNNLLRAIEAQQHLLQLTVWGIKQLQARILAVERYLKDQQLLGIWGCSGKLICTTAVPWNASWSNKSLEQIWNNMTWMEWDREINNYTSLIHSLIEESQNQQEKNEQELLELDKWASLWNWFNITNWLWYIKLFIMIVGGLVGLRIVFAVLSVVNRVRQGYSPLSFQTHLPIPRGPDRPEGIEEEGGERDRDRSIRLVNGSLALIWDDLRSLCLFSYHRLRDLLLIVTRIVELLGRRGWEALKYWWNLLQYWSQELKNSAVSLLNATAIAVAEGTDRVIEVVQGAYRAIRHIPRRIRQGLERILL
Description: as §1, §2, §3

[3] = target: T1, V3 hypervariable loop peptide (303-338) (Human immunodeficiency virus type 1 BH10, UniProt P03375); test: as above; assay type: binding, HIV-1 BH 10; details: ATA 50 μg/ml
T1 construct: cut from Env gp160
T1 sequence (P03375 296-331): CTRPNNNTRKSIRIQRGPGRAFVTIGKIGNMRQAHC
Description: as §1, §2, §3

[4] = target: T2, control peptide (518-542) (Human immunodeficiency virus type 1 BH10, UniProt P03375); test: Attachment of ATA determined by anti-ATA antibodies (double antibody RIA); assay type: binding, HIV-1; details: FIG. 2
T2 construct: cut from Env gp160
T2 sequence (P03375 518-542): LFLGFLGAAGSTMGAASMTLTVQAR
Description: Antibodies to ATA were detected by double antibody RIA using wells coated with an ATA-ovalbumin conjugate. This conjugate was prepared in the same way as described for the ATA-BSA conjugate. Dilution endpoints of anti-ATA antibodies, determined as described by Ritchie, D. G., Nickerson, J. M., and Fuller, G. M. (1983), "Two Simple Programs for the Analysis of Data from Enzyme-linked Immunosorbent Assays (ELISA) on a Programmable Desk-top Calculator," Methods in Enzymology, 92, 577-588) of the two antisera were: 1:2,700 and 1:150,000, respectively. The second antiserum was used for subsequent RIA tests.
ATA was also added to a control peptide, (518-542), and to wells coated with gelatin only. After incubation for 4 hours at 20° C., excess ATA was removed, the wells were washed with TS and attached ATA was determined by double-antibody RIA using serial dilutions of the anti-ATA antiserum. Similar tests were carried out with serum from the same rabbit before immunization with the ATA-BSA conjugate; the corresponding results (100-450 cpm) were subtracted from cpm corresponding to RIA results obtained with the anti-ATA antiserum. For additional assays aimed at determining the binding of ATA to synthetic peptides from gp120 and gp41 of HIV-1 BH 10 and to V3 hypervariable loop peptides from 20 additional HIV-1 isolates, anti-ATA antiserum was used at a final dilution of 1:800.

HIV-1 = details: literature; listed as ATA; cited from earlier work

Sequence of gp120 of the same virus subtype expressed in E. coli (P03378 32-509): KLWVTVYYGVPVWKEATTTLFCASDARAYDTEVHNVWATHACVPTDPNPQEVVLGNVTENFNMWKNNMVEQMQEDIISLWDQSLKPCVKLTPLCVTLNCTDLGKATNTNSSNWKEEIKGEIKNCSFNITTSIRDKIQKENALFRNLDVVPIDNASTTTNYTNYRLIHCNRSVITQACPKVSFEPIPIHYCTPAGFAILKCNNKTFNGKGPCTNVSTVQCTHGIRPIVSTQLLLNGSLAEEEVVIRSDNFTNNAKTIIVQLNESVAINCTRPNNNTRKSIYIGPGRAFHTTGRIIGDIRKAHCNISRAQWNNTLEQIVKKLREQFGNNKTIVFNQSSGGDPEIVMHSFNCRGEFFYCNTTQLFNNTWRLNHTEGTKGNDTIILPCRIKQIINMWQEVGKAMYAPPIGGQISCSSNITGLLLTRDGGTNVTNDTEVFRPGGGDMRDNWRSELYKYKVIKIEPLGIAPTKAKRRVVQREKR

Q: With `O=C(O)C1=CC(=C(c2ccc(O)c(C(=O)O)c2)c2ccc(O)c(C(=O)O)c2)C=CC1=O` [substance #122, aurintricarboxylic acid] as the compound, how does the “interaction of ATA with gp120” value [1] read?
A: Its value is “not with gp120 of the same virus subtype expressed in E. coli”.

Q: What about the “inhibition of reaction of peptide with homologous antibodies” value (“inhibition … with homologous antibodies” below) (peptide (492-518)) of the same compound?
A: The value was “did not inhibit the reaction between this peptide and homologous anti-peptide antibodies”.

Q: And the “inhibition … with homologous antibodies” value (peptide (331-361))?
A: Its value is “Inhibition was also observed”.

Q: What about the “inhibition … with homologous antibodies” value [2] of the same compound?
A: Its value is “Inhibition was also observed”.

Q: What about the “inhibition … with homologous antibodies” value [3] of the same compound?
A: The value was “most dramatically inhibited”.

Q: And the “binding of ATA to control peptide (anti-ATA antibodies)” value [4]?
A: The value was “not with gelatin or a control peptide (518-542)”.

Q: What about the “inhibition of HIV-1 replication / antiviral activity” value (HIV-1) of the same compound?
A: Its value is “inhibited the replication of HIV-1 in vitro; also recorded: inhibit the cytopathogenicity and replication of the human immunodeficiency virus type 1”.
